19 compounds from patent publication US20230143612A1 (Arbutus Biopharma Corporation, priority 2020, published 2023) can be followed below.

PD-L1 His protein / PD-1 Fc protein, sequence (Q9NZQ7 19-238 limits assumed): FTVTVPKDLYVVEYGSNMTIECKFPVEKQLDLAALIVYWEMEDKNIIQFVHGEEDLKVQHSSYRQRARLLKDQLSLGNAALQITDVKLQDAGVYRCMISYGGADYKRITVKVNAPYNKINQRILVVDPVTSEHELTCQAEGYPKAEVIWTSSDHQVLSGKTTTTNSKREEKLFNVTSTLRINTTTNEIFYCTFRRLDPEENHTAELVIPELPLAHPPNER

This test has as its target PD-L1 His protein / PD-1 Fc protein (Homo sapiens, UniProt Q9NZQ7). The test is described as follows: HTRF Assay (PD-1/PD-L1 interaction). It is filed as binding. Conditions: PD-L1 His 6 nM, PD-1 Fc 6 nM. The essentials: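 HTRF: PD-L1 His (6 nM final), compound (3-fold dilutions, 20 μM to 0.001 μM final) and PD-1 Fc (6 nM final) preincubated 15 min at room temperature. Anti-human IgG-XL665 and anti-6HIS Tb cryptate (mixed at 6.7 nM and 0.35 nM) then added for 1 h at room temperature before reading.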
For `COc1cc(-c2cccc(-c3cccc(-c4ccc(CNC[C@@H]5CCC(=O)N5)c(OC)n4)c3Cl)c2Cl)cc2c1CN(CCO)CC2` [Example 455, (S)-5-((((6-(2,2′-Dichloro-3′-(2-(2-hydroxyethyl)-8-methoxy-1,2,3,4-tetrahydroisoquinolin-6-yl)-[1,1′-biphenyl]-3-yl)-2-methoxypyridin-3-yl)methyl)amino)methyl)pyrrolidin-2-one], the IC50 stood at 12 nM. To `COc1nc(-c2cccc(-c3cccc(-c4ccc5c(n4)CCC[C@H]5NC[C@@H]4CCC(=O)N4)c3Cl)c2Cl)ccc1CNC[C@@H]1CCC(=O)N1` [Example 456, (S)-5-((((6-(2,2′-Dichloro-3′-((R)-5-((((S)-5-oxopyrrolidin-2-yl)methyl)amino)-5,6,7,8-tetrahydroquinolin-2-yl)-[1,1′-biphenyl]-3-yl)-2-methoxypyridin-3-yl)methyl)amino)methyl)pyrrolidin-2-one] belongs 0.2 nM; to `COc1nc(-c2cccc(-c3cccc(-c4cc5c(=O)n(C)c(CNC6CCN(C(C)=O)CC6)nn5c4)c3Cl)c2Cl)ccc1CNC[C@@H]1CCC(=O)N1` [Example 457, 2-[[(1-Acetyl-4-piperidyl)amino]methyl]-6-[2-chloro-3-[2-chloro-3-[6-methoxy-5-[[[(2S)-5-oxopyrrolidin-2-yl]methylamino]methyl]-2-pyridyl]phenyl]phenyl]-3-methyl-pyrrolo[2,1-f][1,2,4]triazin-4-one], 190 nM; to `COc1nc(-c2cccc(-c3cccc(-c4cc5c(=O)n(C)c(CNCCN6CCCC6=O)nn5c4)c3Cl)c2Cl)ccc1CNC[C@@H]1CCC(=O)N1` [Example 458, 6-[2-Chloro-3-[2-chloro-3-[6-methoxy-5-[[[(2S)-5-oxopyrrolidin-2-yl]methylamino]methyl]-2-pyridyl]phenyl]phenyl]-3-methyl-2-[[2-(2-oxopyrrolidin-1-yl)ethylamino]methyl]pyrrolo[2,1-f][1,2,4]triazin-4-one], 240 nM.

For `COc1nc(-c2cccc(-c3cccc(-c4cnc5oc(CNC[C@@H]6CCC(=O)N6)cc5c4)c3Cl)c2Cl)ccc1CNC[C@@H]1CCC(=O)N1` [Example 459, (S)-5-((((6-(2,2′-Dichloro-3′-(2-(((((S)-5-oxopyrrolidin-2-yl)methyl)amino)methyl)furo[2,3-b]pyridin-5-yl)-[1,1′-biphenyl]-3-yl)-2-methoxypyridin-3-yl)methyl)amino)methyl)pyrrolidin-2-one], half-maximal inhibition (IC50) was put at 200 nM. To `COc1nc(-c2cccc(-c3cccc(-c4cc5c(=O)n(C)c(CN6CC7(C6)CN(C(C)=O)C7)nn5c4)c3Cl)c2Cl)ccc1CNC[C@@H]1CCC(=O)N1` [Example 460, 2-[(2-Acetyl-2,6-diazaspiro[3.3]heptan-6-yl)methyl]-6-[2-chloro-3-[2-chloro-3-[6-methoxy-5-[[[(2S)-5-oxopyrrolidin-2-yl]methylamino]methyl]-2-pyridyl]phenyl]phenyl]-3-methyl-pyrrolo[2,1-f][1,2,4]triazin-4-one] belongs 9.9 nM; to `COc1nc(-c2cccc(-c3cccc(-c4cc5c(=O)n(C)c(CN6CC(C(C)(C)O)C6)nn5c4)c3Cl)c2Cl)ccc1CNC[C@@H]1CCC(=O)N1` [Example 461, 6-[2-Chloro-3-[2-chloro-3-[6-methoxy-5-[[[(2S)-5-oxopyrrolidin-2-yl]methylamino]methyl]-2-pyridyl]phenyl]phenyl]-2-[[3-(1-hydroxy-1-methyl-ethyl)azetidin-1-yl]methyl]-3-methyl-pyrrolo[2,1-f][1,2,4]triazin-4-one], 13 nM; to `COc1nc(-c2cccc(-c3cccc(-c4cc5c(=O)n(C)c(CNCC(C)(C)F)nn5c4)c3Cl)c2Cl)ccc1CNC[C@@H]1CCC(=O)N1` [Example 462, (S)-6-(2,2′-Dichloro-3′-(6-methoxy-5-((((5-oxopyrrolidin-2-yl)methyl)amino)methyl)pyridin-2-yl)-[1,1′-biphenyl]-3-yl)-2-(((2-fluoro-2-methylpropyl)amino)methyl)-3-methylpyrrolo[2,1-f][1,2,4]triazin-4(3H)-one], 58 nM. To `COc1nc(-c2cccc(-c3cccc(-c4cc5c(=O)n(C)c(CNCC6(F)CC6)nn5c4)c3Cl)c2Cl)ccc1CNC[C@@H]1CCC(=O)N1` [Example 463, (S)-6-(2,2′-Dichloro-3′-(6-methoxy-5-((((5-oxopyrrolidin-2-yl)methyl)amino)methyl)pyridin-2-yl)-[1,1′-biphenyl]-3-yl)-2-((((1-fluorocyclopropyl)methyl)amino)methyl)-3-methylpyrrolo[2,1-f][1,2,4]triazin-4(3H)-one] belongs 36 nM; to `COc1nc(-c2cccc(-c3cccc(-c4cc5c(=O)n(C)c(CN[C@H]6C[C@](C)(O)C6)nn5c4)c3Cl)c2Cl)cc(Cl)c1CNC[C@@H]1CCC(=O)N1` [Example 464, 6-(2,2′-dichloro-3′-(4-chloro-6-methoxy-5-(((((S)-5-oxopyrrolidin-2-yl)methyl)amino)methyl)pyridin-2-yl)-[1,1′-biphenyl]-3-yl)-2-((((1r,3r)-3-hydroxy-3-methylcyclobutyl)amino)methyl)-3-methylpyrrolo[2,1-f][1,2,4]triazin-4(3H)-one], 7.5 nM.

`COc1nc(-c2cccc(-c3cccc(-c4cc5c(=O)n(C)c(CNCC(C)(C)C(F)(F)F)nn5c4)c3Cl)c2Cl)ccc1CNC[C@@H]1CCC(=O)N1` [Example 466, (S)-6-(2,2′-Dichloro-3′-(6-methoxy-5-((((5-oxopyrrolidin-2-yl)methyl)amino)methyl)pyridin-2-yl)-[1,1′-biphenyl]-3-yl)-3-methyl-2-(((3,3,3-trifluoro-2,2-dimethylpropyl)amino)methyl) pyrrolo[2,1-f][1,2,4]triazin-4(3H)-one] displayed an IC50 of 63 nM. Compared with the last compound, the IC50 is about 8.4-fold higher. To `COc1nc(-c2cccc(-c3cccc(-c4cc5c(cn4)C(=O)N(CCNC[C@@H]4CCC(=O)N4)C5)c3Cl)c2Cl)ccc1CNC[C@@H]1CCC(=O)N1` [Example 467, 6-(2,2′-Dichloro-3′-(6-methoxy-5-(((((S)-5-oxopyrrolidin-2-yl)methyl)amino)methyl)pyridin-2-yl)-[1,1′-biphenyl]-3-yl)-2-(2-((((S)-5-oxopyrrolidin-2-yl)methyl)amino)ethyl)-1H-pyrrolo[3,4-c]pyridin-3(2H)-one] belongs 0.1 nM. To `COc1nc(-c2cccc(-c3cccc(-c4cc5c(=O)n(C)c(CN6CC7(CC(O)C7)C6)nn5c4)c3Cl)c2Cl)ccc1CNC[C@@H]1CCC(=O)N1` [Example 468, 6-[2-Chloro-3-[2-chloro-3-[6-methoxy-5-[[[(2S)-5-oxopyrrolidin-2-yl]methylamino]methyl]-2-pyridyl]phenyl]phenyl]-2-[(6-hydroxy-2-azaspiro[3.3]heptan-2-yl)methyl]-3-methyl-pyrrolo[2,1-f][1,2,4]triazin-4-one] belongs 7 nM. The same measure for `COc1nc(-c2cccc(-c3cccc(-c4cc5c(=O)n(C)c(CN6CC(C)(O)C6)nn5c4)c3Cl)c2Cl)ccc1CNC[C@@H]1CCC(=O)N1` [Example 469, 6-[2-Chloro-3-[2-chloro-3-[6-methoxy-5-[[[(2S)-5-oxopyrrolidin-2-yl]methylamino]methyl]-2-pyridyl]phenyl]phenyl]-2-[(3-hydroxy-3-methyl-azetidin-1-yl)methyl]-3-methyl-pyrrolo[2,1-f][1,2,4]triazin-4-one]: 5.9 nM; for `COc1nc(-c2cccc(-c3cccc(-c4cc5c(=O)n(C)c(CN6CC(C)(C#N)C6)nn5c4)c3Cl)c2Cl)ccc1CNC[C@@H]1CCC(=O)N1` [Example 470, 1-[[6-[2-chloro-3-[2-chloro-3-[6-methoxy-5-[[[(2S)-5-oxopyrrolidin-2-yl]methylamino]methyl]-2-pyridyl]phenyl]phenyl]-3-methyl-4-oxo-pyrrolo[2,1-f][1,2,4]triazin-2-yl]methyl]-3-methyl-azetidine-3-carbonitrile]: 37 nM. The compound `COc1nc(-c2cccc(-c3cccc(-c4nc5c(c(OC)n4)CN(C[C@@H]4CCC(=O)N4)CC5)c3Cl)c2Cl)ccc1CNC[C@@H]1CCC(=O)N1` [Example 471, (S)-5-((((6-(2,2′-Dichloro-3′-(4-methoxy-6-(((S)-5-oxopyrrolidin-2-yl)methyl)-5,6,7,8-tetrahydropyrido[4,3-d]pyrimidin-2-yl)-[1,1′-biphenyl]-3-yl)-2-methoxypyridin-3-yl)methyl)amino)methyl)pyrrolidin-2-one] displayed an IC50 of 0.1 nM. To `COc1nc(-c2cccc(-c3cccc(-c4cc5c(=O)n(C)c(CNC[C@@H]6CCO6)nn5c4)c3Cl)c2Cl)ccc1CNC[C@@H]1CCC(=O)N1` [Example 472, 6-[2-Chloro-3-[2-chloro-3-[6-methoxy-5-[[[(2S)-5-oxopyrrolidin-2-yl]methylamino]methyl]-2-pyridyl]phenyl]phenyl]-3-methyl-2-[[[(2S)-oxetan-2-yl]methylamino]methyl]pyrrolo[2,1-f][1,2,4]triazin-4-one] belongs 400 nM. The same measure for `COc1nc(-c2cccc(-c3cccc(-c4cc5c(=O)n(C)c(CNC67CC(O)(C6)C7)nn5c4)c3Cl)c2Cl)ccc1CNC[C@@H]1CCC(=O)N1` [Example 473, (S)-6-(2,2′-Dichloro-3′-(6-methoxy-5-((((5-oxopyrrolidin-2-yl)methyl)amino)methyl)pyridin-2-yl)-[1,1′-biphenyl]-3-yl)-2-(((3-hydroxybicyclo[1.1.1]pentan-1-yl)amino)methyl)-3-methylpyrrolo[2,1-f][1,2,4]triazin-4(3H)-one]: 5.3 nM.

Regarding `COc1nc(-c2cccc(-c3cccc(-c4cc5c(=O)n(C)c(CNC[C@@H]6CCCO6)nn5c4)c3Cl)c2Cl)ccc1CNC[C@@H]1CCC(=O)N1` [Example 474, 6-[2-Chloro-3-[2-chloro-3-[6-methoxy-5-[[[(2S)-5-oxopyrrolidin-2-yl]methylamino]methyl]-2-pyridyl]phenyl]phenyl]-3-methyl-2-[[[(2S)-tetrahydrofuran-2-yl]methylamino]methyl]pyrrolo[2,1-f][1,2,4]triazin-4-one], the IC50 amounted to 21 nM.
